Values of other authors, collected in patent US8747895B2 (priority 2004, dated 2014).
Where two headings read alike, the source gives them in different places.

Details: for absolute bioavailability: oral administration

In the case of “(−)-N-Methyl-3-(o-tolyloxy)-propylamine hydrochloride [Atomoxetine]”, the absolute bioavailability (EMs (extensive metabolizers)) is given as 63%, the absolute bioavailability (PMs (poor metabolizers)) is given as 94% and the “delay of Tmax with food” value (standard high-fat meal) is given as 3 h. The “lower Cmax with food” value (standard high-fat meal) was 10-37%.
